{
  "source": "paper PMC7466159",
  "about": "“Anti-Metastasis Fascin Inhibitors Decrease the Growth of Specific Subtypes of Cancers” (Cancers, 2020)",
  "key": {"[1]": {"test_system": "MDA-MB-231 triple-negative breast cancer cells", "set-up": "method as in PMID 26081695, PMID 27071719", "details": "MDA-MB-231 cells; cited from earlier work"}, "[2]": {"test_system": "NF-κB nuclear translocation in Ly10 cells", "experiment": "p65 (NF-κB) nuclear translocation, Western blotting, Ly10", "assay_type": "cell-based", "details": "30 µM, 16 h"}, "[3]": {"experiment": "Stability in plasma samples during bioanalysis", "assay_type": "physicochemical", "details": "after freeze-thaw, and during storage, processing and analysis", "procedure": "The concentrations of NP-G2-044 in plasma were determined using high performance liquid chromatography with tandem mass spectrometry (LC-MS/MS). All blood samples were transferred into a commercial tube containing potassium (K2) EDTA (ethylene diaminetetraacetic acid) and were processed for plasma. Samples were centrifuged (3000× g for 10 min at 2 to 8 °C) within one hour of collection. The assays used a Sciex API 4000 detector and nifedipine as an internal standard. The calibration ranges for NP-G2-044 were from 5.00 to 5000 ng/mL."}, "[4]": {"test_system": "phosphorylation of ERK, PLCγ1, and PI3K in MDA-MB-468 cells", "experiment": "EGFR signaling pathway Western blotting, MDA-MB-468", "assay_type": "cell-based", "details": "10 ng/mL EGF, 30 µM, 24 h", "experimental": "MDA-MB-468 cells and HCC38 cells grew in the presence of EGF with or without NP-G2-044. […] Finally, we used the animal model to investigate whether the primary tumor growth of MDA-MB-468 cells was sensitive to fascin inhibitors. MDA-MB-468 tumor cells were implanted into the mammary gland of NSG mice, and these mice were randomly divided into four groups. One group of mice was used as control (Figure 6I). The second group of mice was treated with the fascin inhibitor NP-G2-044 (Figure 6I). The third group was treated with the EGFR inhibitor gefitnib (Figure 6I), and the fourth group was treated with the combination of NP-G2-044 + gefitinib (Figure 6I). […] We dissected the primary tumor tissues 55 days after the tumor implantation from some mice. […] Furthermore, the overall survival of the mice was analyzed (Figure 6K).\nFor the cell signal pathway analysis of breast cancer cells, HCC38 and MDA-MB-468 cells were plated in a 10-cm dish. After culture for 24 h, cells were incubated in serum-free medium for 16 h."}, "[5]": {"test_system": "NCI-H660 human neuroendocrine prostate cancer cells", "experiment": "Boyden chamber cell migration assay", "assay_type": "cell-based", "details": "about twenty hours, 10% serum, read-out: IC50, tumor cell migration", "text": "Cells were stained with crystal violet staining solution, and cells on the upper side of the insert were removed with a cotton swab."}, "[6]": {"test_system": "phosphorylation of PI3K, AKT, JNK, and STAT6", "experiment": "Western blotting of signaling pathways in U2932 cells", "assay_type": "cell-based", "details": "30 µM, 16 h", "experimental": "We treated U2932 cells with or without NP-G2-044, and measured the potential effects of NP-G2-044 on various pathways critical for lymphoma cell growth.\nThe lymphoma cells were plated in 10-cm dish. After culture for 24 h, cells were incubated in serum-free medium for 16 h. Cells were then incubated in growth medium with 30 µM NP-G2-044 or dissolvent for 16 h, followed by collecting whole cell lysates or nuclear extracts as previously described."}, "HT cells [7]": {"test_system": "HT cells", "experiment": "Cell growth assay, HT", "details": "HT cells in culture, 4 days", "procedure": "We then extended our search to other types of lymphoma cells. […] Both U2932 and Ly10 cells are ABC-subtype DLBCLs, and HT cells are diffuse mixed lymphoma.\nFor NP-G2-044 dose-dependent studies, 1 × 10^5 Ly10, U2932, or HT cells were seeded in a 12- or 24-well plate on day 0. A total of 1, 3, 10, 30, or 100 μM NP-G2-044 or control solvent was added to the plates. Cells were collected and counted on day 4. For time-dependent studies, 1 × 10^5 Ly10, U2932, or HT cells were seeded in a 12- or 24-well plate on day 0. A total of 30 μM NP-G2-044, 5 μM LY2409881, 30 μM NP-G2-044 plus 5 μM LY2409881, or control solvent was added to the plates. Cells were collected and counted on Days 2 and 4. […] The cell growth index was expressed as the fold changes of cell numbers over the starting cell number. For these assays, the old medium was changed with a fresh medium containing the control solvent or the inhibitors every two days."}, "[8]": {"experiment": "Plasma protein binding assay with mouse plasma", "assay_type": "in vitro ADME", "details": "in the presence of 100% serum"}, "4T1 breast tumor cells": {"test_system": "4T1 breast tumor cells", "experiment": "4T1 metastatic recurrence after chemotherapy and surgical removal of primary tumor", "assay_type": "in vivo, mice", "details": "100 mg/kg once daily by gavage starting on Day 3, with paclitaxel and surgery; compared to chemotherapy alone, p < 0.05; Day 32", "experimental": "Female BALB/c mice (6- to 8-week old) were purchased from Charles River Labs. The 4T1 tumor cells (1 × 10^5) were injected subcutaneously into the abdominal mammary gland area of mice using 0.1 mL of a single-cell suspension in PBS-matrigel (v/v, 1:1) on Day 0 as previously described. […] On Day 28, the mice were sacrificed. […] The numbers of metastatic 4T1 cells in lungs were determined by a clonogenic assay. In brief, the lungs were removed from each mouse, finely minced and digested in 5 mL of an enzyme cocktail containing 1 × PBS and 1 mg/mL collagenase type IV for 2 h at 37 ℃ on a platform rocker. After incubation, samples were filtered through 70-µm nylon cell strainers and washed twice with PBS. The resulting cells were suspended and plated with a series of dilutions in 10-cm tissue culture dishes in DMEM medium containing 60 µM thioguanine for clonogenic growth. As 4T1 tumor cells are resistant to 6-thioguanine, the metastasized tumor cells formed foci after 14 days, at which time they were fixed with 4% paraformaldehyde and stained with crystal violet staining solution for counting. For the experiments in Figure 2F,G, 4T1 tumor cells (1 × 10^5) suspended in PBS-matrigel (v/v, 1:1) were injected subcutaneously into the abdominal mammary gland area of mice on day 0. Starting on Day 3, NP-G2-044 was given to mice once every day by oral gavage at 100 mg kg^−1 per mouse. […]"}, "[9]": {"test_system": "KARPAS 299 lymphoma cells", "experiment": "Cell growth sensitivity, KARPAS 299", "assay_type": "cell-based"}, "HT cells [10]": {"test_system": "HT cells", "experiment": "Soft-agar colony formation assay, HT", "assay_type": "cell-based", "details": "14 days, dosage-dependent", "experimental": "A total of 1 × or 2 ×10^4 cells were suspended in 0.5 mL of 0.3% low melting point agar (Merck KGaA, Darmstadt, Germany) in RPMI-1640 or DMEM containing 10% FBS and control solvent or the inhibitors. This suspension was overlaid on pre-solidified with 0.6% agar in the same medium in 24-well plates as previously described. Normal growth medium containing control solvent or the inhibitors was gently layered over the cultures every 4 days for 14 days. The colonies were stained with 0.1% crystal violet for 1 h at room temperature and counted under a microscope."}, "Ly1 lymphoma cells": {"test_system": "Ly1 lymphoma cells", "experiment": "Cell growth sensitivity, Ly1", "assay_type": "cell-based"}, "U2932 lymphoma cells": {"test_system": "U2932 lymphoma cells", "experiment": "U2932 lymphoma model in NSG mice (tumor growth, liver metastasis, overall survival)", "assay_type": "in vivo", "experimental": "For the lymphoma model, U2932 cells (5 × 10^6) suspended in PBS-matrigel (v/v, 1:1) were subcutaneously injected into NSG mice on Say 0. Starting on Day 49, NP-G2-044 was given once a day for 5 days every week by gavage at 300 mg kg^−1 per mouse until their death. Starting on Day 49, LY2409881 was given once weekly by intraperitoneal injection at 50 mg kg^−1 per mouse for 8 times. The control solvent was given according to their body weights until their death. […] The primary tumors and livers shown in the figure were dissected on Day 67."}, "[11]": {"details": "treatment from Day 49, vs control group"}},
  "data": [
    {"smiles": "Cc1occc1C(=O)Nc1nn(Cc2ccc(C(F)(F)F)cc2)c2ccccc12", "note": "[NP-G2-044]", "values": [
      {"measurement": "induction of apoptosis", "setting": "[1]", "value": "did not induce the apoptosis"},
      {"measurement": "nuclear translocation of the p65 subunits", "setting": "[2]", "value": "also observed"},
      {"measurement": "stability", "setting": "[3]", "value": "stable"},
      {"measurement": "phosphorylation of ERK, PLCγ1, and PI3K", "setting": "[4]", "value": "affected"},
      {"measurement": "IC50", "setting": "[5]", "value": "3 to 5", "unit": "µM"},
      {"measurement": "phosphorylation of PI3K, AKT kinase, JNK kinase, and STAT6 transcription factor", "setting": "[6]", "value": "no effect"},
      {"measurement": "effect on cell growth", "setting": "HT cells [7]", "value": "inhibitory effect"},
      {"measurement": "fraction unbound", "setting": "[8]", "value": "~0.003"},
      {"measurement": "metastatic recurrence of breast tumors in the lung", "setting": "4T1 breast tumor cells", "value": "slowed the metastatic recurrence"},
      {"measurement": "growth sensitivity", "setting": "[9]", "value": "insensitive"},
      {"measurement": "number of growing colonies", "setting": "HT cells [10]", "value": "decreased the number of growing colonies"},
      {"measurement": "growth sensitivity", "setting": "Ly1 lymphoma cells", "value": "insensitive"},
      {"measurement": "metastasis of implanted lymphoma cells to the liver", "setting": "U2932 lymphoma cells; livers dissected on Day 67", "value": "blocked the metastasis to the liver"},
      {"measurement": "increase of median overall survival", "setting": "U2932 lymphoma cells; [11]", "value": 79, "unit": "%"},
      {"measurement": "overall survival", "setting": "U2932 lymphoma cells; [11]", "value": "increased"},
      {"measurement": "primary tumor growth", "setting": "U2932 lymphoma cells; [11]", "value": "decreased"}
    ]}
  ]
}
